According to PubChem BioAssay (NCI):
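Exposure lasted 48 hours, with cells grown in 96-well plates and compounds tested at five concentrations. GI50: concentration for 50% inhibition of growth. TGI: concentration producing complete growth inhibition.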 Where a SMILES comes first, the peptide text is derived from it. [ ]: non-standard residue; d: D form. The star is where a group is joined. Phe(4-NO2) = N[CH](Cc1ccc([N+](=O)[O-])cc1)C(=O)O; Boc = CC(C)(C)OC(=O)*

Tests used:
Test in all cases: DTP human tumour cell line panel, 48 h
[1] = test system: TK-10 renal
[2] = test system: UACC-62 melanoma
[3] = test system: CAKI-1 renal
[4] = test system: OVCAR-3 ovarian
[5] = test system: UO-31 renal
[6] = test system: DU-145 prostate
[7] = test system: NCI/ADR-RES ovarian
[8] = test system: OVCAR-4 ovarian
[9] = test system: DLD-1 colon
[10] = test system: SNB-78 CNS
[11] = test system: HOP-18 NSCLC
[12] = test system: DMS 114 small cell lung

Row | Compound | TGI [1] [µM] | TGI [2] [µM] | TGI [3] [µM] | TGI [4] [µM] | TGI [5] [µM] | TGI [6] [µM] | TGI [7] [µM] | TGI [8] [µM] | TGI [9] [µM] | TGI [10] [µM] | TGI [11] [µM] | TGI [12] [µM] | GI50 [1] [nM] | GI50 [2] [nM] | GI50 [3] [nM] | GI50 [4] [nM] | GI50 [5] [nM] | GI50 [6] [nM] | GI50 [7] [nM] | GI50 [8] [nM]
1 | CCC(C#N)NCc1cccc(CNC(C#N)CC)c1 (configuration not stated) | > 100 | > 100 | > 100 | > 100 | > 100 | > 100 | > 100 | > 100 |  |  |  |  |  |  |  |  |  |  |  | 
2 | O=[N+]([O-])c1ccc(N/N=C/c2ccc(OCCCCCCCCCCCO)cc2)c([N+](=O)[O-])c1 | 33.7 | 7.74 | 8.94 | > 100 | 36.1 | > 95.9 | 9.51 | 13.7 |  |  |  |  |  |  |  |  |  |  |  | 
3 | CC1(C)C2C=CC1C(=O)CC2 (configuration not stated) | > 100 |  | > 100 | > 100 | > 100 |  |  | > 100 | > 100 | > 100 | > 100 |  |  |  |  |  |  |  |  | 
4 | O=C1c2ccc(O)c(O)c2C(=O)c2c(O)ccc(O)c21 | > 100 | 41.6 |  | 49.7 | 42.8 |  |  | 6.53 | > 100 | > 100 |  | 32.6 |  |  |  |  |  |  |  | 
5 | Cc1ccc2c(c1)-c1nc(N)c(C#N)c(-c3ccccc3)c1CCS2(=O)=O | 61 | > 100 | > 100 | > 100 | > 100 | > 100 | > 100 | 41.8 |  |  |  |  |  |  |  |  |  |  |  | 
6 | O=C1CSC(c2cccc([N+](=O)[O-])c2)N1c1ccc(-n2c(-c3ccccc3)nc3ccccc3c2=O)cc1 (configuration not stated) | > 100 | > 100 | > 100 | > 100 | 65.6 | > 100 | > 100 | > 100 |  |  |  |  |  |  |  |  |  |  |  | 
7 | CC(C)/C(Cl)=N\OC(=O)Nc1cccc(Cl)c1 | 28.6 | 46.3 | 34.8 | 10.8 | 33.3 | 51.2 | > 57 | 27 |  |  |  |  |  |  |  |  |  |  |  | 
8 | Cc1cc(=O)oc2c(CNC(Cc3ccccc3)C(=O)O)c(O)ccc12 (configuration not stated) | > 100 | > 100 | > 100 | > 100 | > 100 | > 100 | > 100 | > 100 |  |  |  |  |  |  |  |  |  |  |  | 
9 | COc1cc2c(cc1OCCCC(=O)Nc1ccc3ccc4cccc5ccc1c3c45)N=C[C@@H]1CCCN1C2=O | 0.237 | 0.0263 | 1.63 | 0.518 |  | < 0.01 | 0.262 | 10.1 |  |  |  |  | 38.4 | < 10 | 434 | 197 | < 15.8 | < 10 | 54.3 | < 10
10 | CC1=C(C(=O)Nc2ccccc2)C2(CCCCC2)C(C#N)=C(SCC(=O)Nc2ccc(Br)cc2)N1 | > 45.4 | > 87.3 | 17.6 | 15 | 2.76 | > 100 | 27.3 | > 75.2 |  |  |  |  |  |  |  |  |  |  |  | 
11 | CO/N=C(\C)CCC#Cc1ccccc1C(=O)OC | > 10 | > 10 | > 10 | > 10 | > 10 | > 10 | > 10 | > 10 |  |  |  |  |  |  |  |  |  |  |  | 
12 | COC(=O)C1(C)C=CC(=O)C2(C)C1C(O)C1OC3CC(c4ccoc4)C(C)=C3C1(C)C2CC(=O)O (configuration not stated) | > 100 | > 100 | > 100 | > 100 | > 100 | > 100 | > 100 | > 100 |  |  |  |  |  |  |  |  |  |  |  | 
13 | CNC(=O)CCC(NC(=O)OC(C)(C)C)C(=O)NC(Cc1ccc([N+](=O)[O-])cc1)C(=O)NCC(=O)NC (configuration not stated) (Boc-Glu(NHMe)-[Phe(4-NO2)]-Gly-NHMe; configuration not given here) | > 100 | > 100 | > 100 | > 100 | > 100 | > 100 | > 100 | > 100 |  |  |  |  |  |  |  |  |  |  |  | 
14 | CCN(CC)C(=O)C(C)n1cc(C)c(=O)[nH]c1=O (configuration not stated) | > 100 | > 100 |  | > 100 | > 100 |  |  | > 100 |  | > 100 |  | > 100 |  |  |  |  |  |  |  | 
15 | CC(C)NC(=O)CN1CCN(c2c(O)c3c(c(O)c2Cl)C(=O)C=CC3=O)CC1 | 4.27 | 3.22 | 5 | 2.97 | 2.64 | 7.31 | 10.7 | 3.12 |  |  |  |  |  |  |  |  |  |  |  | 
16 | Cn1c(-c2cccc([N+](=O)[O-])c2)[n+](C)c2ccccc21 | > 100 | > 100 | > 100 | > 100 | > 100 | > 100 | > 100 | > 100 |  |  |  |  |  |  |  |  |  |  |  | 
17 | CCOC(=O)C(SCCO)C(C(=O)OCC)n1ccc(=O)[nH]c1=O (configuration not stated) | > 100 | 67.3 | 39.5 | 72.7 | > 100 | > 100 | > 69.4 | > 86.5 |  |  |  |  |  |  |  |  |  |  |  | 
